Laboratory results taken from patent publication US6391897B2, “Biphenyl oxo-acetic acids useful in the treatment of insulin resistance and hyperglycemia” (American Home Products Corporation, priority 1998, dated 2002).
Where two headings read alike, the source gives them in different places.

Experiments:
diabetic (ob/ob) mice = experiment: Blood glucose lowering in diabetic (ob/ob) mice; format: in vivo; details: Mus musculus, po
Human recombinant PTP1B = target: T1, Human recombinant PTP1B (Homo sapiens, UniProt P18031); experiment: Inhibition of tri-phosphorylated insulin receptor dodecaphosphopeptide dephosphorylation by hPTP1B (malachite green); format: biochemical; details: compound at 2.5 uM
T1 construct: made in house
T1 sequence (P18031 1-435): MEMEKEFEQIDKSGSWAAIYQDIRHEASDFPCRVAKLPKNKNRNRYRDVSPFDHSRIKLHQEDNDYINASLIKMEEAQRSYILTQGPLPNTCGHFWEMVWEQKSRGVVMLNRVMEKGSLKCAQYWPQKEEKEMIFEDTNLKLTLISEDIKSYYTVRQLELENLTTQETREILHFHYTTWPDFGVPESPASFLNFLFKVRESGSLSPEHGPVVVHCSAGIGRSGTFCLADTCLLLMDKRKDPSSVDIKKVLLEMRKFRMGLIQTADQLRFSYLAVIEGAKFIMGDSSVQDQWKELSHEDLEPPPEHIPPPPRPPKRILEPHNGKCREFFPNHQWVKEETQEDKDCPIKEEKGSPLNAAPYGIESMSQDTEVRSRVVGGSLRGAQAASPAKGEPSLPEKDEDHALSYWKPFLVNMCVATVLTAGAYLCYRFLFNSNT

[1] = read-out: % Change Insulin from Vehicle

Structure (SMILES) | change in vivo at 100 mg/kg (diabetic (ob/ob) mice; 96 h, plasma glucose on Day 4, 7 or 14, read-out: % Change Glucose from Vehicle) [%] | change in vivo at 100 mg/kg (diabetic (ob/ob) mice; [1]) [%] | percent of phosphatase control (change) at 2.5 uM (Human recombinant PTP1B)
CC1(COc2ccc(CC3SC(=O)NC3=O)cc2)CCCCC1 (centres unmarked) [Ciglitazone, 5-(4-(1-methylcyclohexylmethoxy)benzyl)-2,4-dione] | -43 | -39 | –
O=C(O)COc1ccc(-c2ccc(-c3c(Br)oc4ccccc34)cc2)cc1 [Example 6, [4′-(2-Bromo-benzofuran-3-yl)-biphenyl-4-yloxy]-acetic acid] | – | – | −15 (2.5 uM) %
O=C(O)C(Cc1ccccc1)Oc1ccc(-c2ccc(-c3c(Br)oc4ccccc34)cc2)cc1 (centres unmarked) [Example 7, 2-[4′-(2-Bromo-benzofuran-3-yl)-biphenyl-4-yloxy]-3-phenyl-propionic acid] | – | – | −58 (2.5 uM) %
O=C(c1ccccc1)c1oc2ccccc2c1-c1ccc(-c2ccc(OC(Cc3ccccc3)C(=O)O)cc2)cc1 (centres unmarked) [Example 14, 2-[4′-(2-Benzoyl-benzofuran-3-yl)-biphenyl-4-yloxy]-3-phenyl-propionic acid] | – | 19.8 | –
COC(=O)[C@H](Cc1ccccc1)Oc1ccc(-c2ccc(-c3c(Cc4ccccc4)oc4ccccc34)cc2)cc1 [Example 23, (2S)-2-[4′-(2-Benzyl-benzofuran-3-yl)-biphenyl-4-yloxy]-3-phenyl-propionic acid methyl ester] | – | – | −36 (2.5 uM) %
O=C(O)[C@H](Cc1ccccc1)Oc1ccc(-c2ccc(-c3nc4ccccc4n3Cc3ccccc3)cc2)cc1 [Example 70, (2S)-2-[4′-(1-Benzyl-1H-benzimidazol-2-yl)-biphenyl-4-yloxy]-3-phenyl-propionic acid] | – | – | −41 (2.5 uM) %
CC(=O)c1ccc(-c2ccc(-c3ccc(O[C@@H](Cc4ccccc4)C(=O)[O-])cc3)cc2)s1.[Na+] [Example 71, (2S)-2-[4′-(5-acetyl-thiophen-2-yl)-biphenyl-4-yloxy]-3-phenyl-propionic acid sodium salt] | – | – | −43 (2.5 uM) %
